Measurements as given in ChEMBL document CHEMBL1138190, “Synthesis and antibacterial activity of novel C12 vinyl ketolides” (J Med Chem, 2006).
In brackets after ≈: the same amount, converted by molar mass. Activity calls are given as the source filed them. No cut-off for these calls is given here.

What was measured:
Streptococcus pneumoniae [1] = assay: Antibacterial activity against Streptococcus pneumoniae Mef 3855; type: functional
Enterococcus faecalis [2] = assay: Antibacterial activity against Enterococcus faecalis bc11148-2; type: functional
Streptococcus pneumoniae [3] = assay: Antibacterial activity against Streptococcus pneumoniae Erm 3120; type: functional
Streptococcus pneumoniae [4] = assay: Antibacterial activity against Streptococcus pneumoniae Mef 2880; type: functional
Streptococcus pneumoniae [5] = assay: Antibacterial activity against Streptococcus pneumoniae Erm 2218; type: functional
Streptococcus pneumoniae [6] = assay: Antibacterial activity against Streptococcus pneumoniae Erm S 4297; type: functional
[7] = Plasma half life in Sprague-Dawley rat at 15 mg/kg, po; type: ADME, organism-based; set-up: dose 15 mg/kg, route oral
Streptococcus pneumoniae [8] = assay: Antibacterial activity against Streptococcus pneumoniae Mef 6966; type: functional
[9] = tested on: Staphylococcus epidermidis; assay: Antibacterial activity against Staphylococcus epidermidis f50654; type: functional
Streptococcus pneumoniae [10] = assay: Antibacterial activity against Streptococcus pneumoniae Mef 9142; type: functional
Streptococcus pneumoniae [11] = assay: Antibacterial activity against Streptococcus pneumoniae Mef 1556; type: functional
Haemophilus influenzae [12] = assay: Antibacterial activity against Haemophilus influenzae 49247; type: functional
[13] = Volume of distribution in Sprague-Dawley rat at 5 mg/kg, iv and 15 mg/kg, po; type: ADME, organism-based; conditions: in vivo, read-out: Vdss
Streptococcus pneumoniae [14] = assay: Antibacterial activity against Streptococcus pneumoniae Erm 8947; type: functional
Streptococcus pneumoniae [15] = assay: Antibacterial activity against Streptococcus pneumoniae Mef 4126; type: functional
Streptococcus pneumoniae [16] = assay: Antibacterial activity against Streptococcus pneumoniae Mef 10095; type: functional
Streptococcus pneumoniae [17] = assay: Antibacterial activity against Streptococcus pneumoniae Erm 8339; type: functional
Streptococcus pneumoniae [18] = assay: Antibacterial activity against Streptococcus pneumoniae Mef 1566; type: functional
Streptococcus pneumoniae [19] = assay: Antibacterial activity against Streptococcus pneumoniae Erm 6388; type: functional
Streptococcus pneumoniae [20] = assay: Antibacterial activity against Streptococcus pneumoniae Erm 867; type: functional
Streptococcus pneumoniae [21] = assay: Antibacterial activity against Streptococcus pneumoniae Mef 3449; type: functional
Streptococcus pneumoniae [22] = assay: Antibacterial activity against Streptococcus pneumoniae Erm 6849; type: functional
[23] = Plasma half life in Sprague-Dawley rat at 5 mg/kg, iv; type: ADME, organism-based; set-up: dose 5 mg/kg, route intravenous
Rattus norvegicus [24] = assay: Efficacy against Haemophilus influenzae in Sprague-Dawley rat lung infection model at 50 mg/kg; type: functional, organism-based; set-up: dose 50 mg/kg
Streptococcus pneumoniae [25] = assay: Antibacterial activity against Streptococcus pneumoniae Mef 5654; type: functional
Streptococcus pneumoniae [26] = assay: Antibacterial activity against Streptococcus pneumoniae Erm 10279; type: functional
Streptococcus pneumoniae [27] = assay: Antibacterial activity against Streptococcus pneumoniae Mef S 3435; type: functional
Streptococcus pneumoniae [28] = assay: Antibacterial activity against Streptococcus pneumoniae Mef S 3427; type: functional
Streptococcus pneumoniae [29] = assay: Antibacterial activity against Streptococcus pneumoniae Erm 5354; type: functional
Streptococcus pneumoniae [30] = assay: Antibacterial activity against Streptococcus pneumoniae Erm 5399; type: functional
Streptococcus pneumoniae [31] = assay: Antibacterial activity against Streptococcus pneumoniae Erm 8919; type: functional
Streptococcus pneumoniae [32] = assay: Antibacterial activity against Streptococcus pneumoniae Erm 6396; type: functional
Streptococcus pneumoniae [33] = assay: Antibacterial activity against Streptococcus pneumoniae Mef 41; type: functional
Streptococcus pneumoniae [34] = assay: Antibacterial activity against Streptococcus pneumoniae Mef 5649; type: functional
Streptococcus pneumoniae [35] = assay: Antibacterial activity against Streptococcus pneumoniae Erm S 4085; type: functional
Staphylococcus aureus [36] = assay: Antibacterial activity against Staphylococcus aureus 33591; type: functional
Streptococcus pneumoniae [37] = assay: Antibacterial activity against Streptococcus pneumoniae Mef 1790; type: functional
Streptococcus pneumoniae [38] = assay: Antibacterial activity against Streptococcus pneumoniae Mef 9959; type: functional
Rattus norvegicus [39] = assay: Efficacy against Streptococcus pneumoniae Erm in Sprague-Dawley rat lung infection model at 50 mg/kg; type: functional, organism-based; set-up: dose 50 mg/kg
[40] = tested on: Staphylococcus epidermidis; assay: Antibacterial activity against Staphylococcus epidermidis 14990; type: functional
Streptococcus pneumoniae [41] = assay: Antibacterial activity against Streptococcus pneumoniae Erm 4290; type: functional
Rattus norvegicus [42] = assay: Plasma AUC in Sprague-Dawley rat at 5 mg/kg, iv; type: ADME, organism-based; set-up: dose 5 mg/kg, route intravenous; conditions: in vivo
Streptococcus pneumoniae [43] = assay: Antibacterial activity against Streptococcus pneumoniae Erm 7985; type: functional
Haemophilus influenzae [44] = assay: Antibacterial activity against Haemophilus influenzae 2762; type: functional
[45] = Lung half life in Sprague-Dawley rat at 15 mg/kg, po; type: ADME, organism-based; set-up: dose 15 mg/kg, route oral
Streptococcus pneumoniae [46] = assay: Antibacterial activity against Streptococcus pneumoniae Erm 8257; type: functional
Streptococcus pyogenes = assay: Antibacterial activity against Streptococcus pyogenes 8668; type: functional
Streptococcus pneumoniae [47] = assay: Antibacterial activity against Streptococcus pneumoniae Erm 5590; type: functional
[48] = Oral bioavailability in Sprague-Dawley rat at 15 mg/kg, po; type: ADME, organism-based; conditions: in vivo
Streptococcus pneumoniae [49] = assay: Antibacterial activity against Streptococcus pneumoniae Erm 5554; type: functional
[50] = Lung-to-plasma AUC ratio in Sprague-Dawley rat at 5 mg/kg, iv; type: ADME, organism-based; set-up: dose 5 mg/kg, route intravenous; conditions: lung and plasma
Streptococcus pneumoniae [51] = assay: Antibacterial activity against Streptococcus pneumoniae 297-749; type: functional
Streptococcus pneumoniae [52] = assay: Antibacterial activity against Streptococcus pneumoniae 49619; type: functional
Streptococcus pneumoniae [53] = assay: Antibacterial activity against Streptococcus pneumoniae 280-962; type: functional
Streptococcus pneumoniae [54] = assay: Antibacterial activity against Streptococcus pneumoniae Mef 4331; type: functional
Staphylococcus aureus [55] = assay: Antibacterial activity against Staphylococcus aureus 29213; type: functional
Streptococcus pneumoniae [56] = assay: Antibacterial activity against Streptococcus pneumoniae Mef 2382; type: functional
Enterococcus faecalis [57] = assay: Antibacterial activity against Enterococcus faecalis 29212; type: functional
Streptococcus pneumoniae [58] = assay: Antibacterial activity against Streptococcus pneumoniae Erm 5415; type: functional
Streptococcus pneumoniae [59] = assay: Antibacterial activity against Streptococcus pneumoniae Mef 953; type: functional
Streptococcus pneumoniae [60] = assay: Antibacterial activity against Streptococcus pneumoniae Erm 4589; type: functional
Streptococcus pneumoniae [61] = assay: Antibacterial activity against Streptococcus pneumoniae Mef 983; type: functional

Question: Which MIC (Streptococcus pneumoniae [1]) does the source give for `C=C[C@]12OC(=O)N(CCCCn3cnc(-c4ccc(C)nc4)c3)[C@@H]1[C@@H](C)C(=O)[C@H](C)C[C@@](C)(OC)[C@H](O[C@@H]1O[C@H](C)C[C@H](N(C)C)[C@H]1O)[C@@H](C)C(=O)[C@@H](C)C(=O)O[C@@H]2CC` here?
Answer: 0.2 µg/mL (≈ 0.239 µM)

Question: What about the MIC (Enterococcus faecalis [2]) of the same compound?
Answer: 0.78 µg/mL (≈ 0.931 µM)

Question: What about the MIC (Streptococcus pneumoniae [3]) of the same compound?
Answer: 0.2 µg/mL (≈ 0.239 µM)

Question: And the MIC (Streptococcus pneumoniae [4])?
Answer: 0.2 µg/mL (≈ 0.239 µM)

Question: What about the MIC (Streptococcus pneumoniae [5]) of the same compound?
Answer: 0.1 µg/mL (≈ 0.119 µM)

Question: And the MIC (Streptococcus pneumoniae [6])?
Answer: 0.025 µg/mL (≈ 0.0298 µM)

Question: What about the half-life [7] of the same compound?
Answer: 144 min

Question: And the MIC (Streptococcus pneumoniae [8])?
Answer: 0.2 µg/mL (≈ 0.239 µM)

Question: And the MIC [9]?
Answer: 0.2 µg/mL (≈ 0.239 µM)

Question: And the MIC (Streptococcus pneumoniae [10])?
Answer: 0.4 µg/mL (≈ 0.477 µM)

Question: What about the MIC (Streptococcus pneumoniae [11]) of the same compound?
Answer: ≤ 0.05 µg/mL

Question: And the MIC (Haemophilus influenzae [12])?
Answer: 3.13 µg/mL (≈ 3.73 µM)

Question: What about the Vd [13] of the same compound?
Answer: 14 L/kg

Question: What about the MIC (Streptococcus pneumoniae [14]) of the same compound?
Answer: 0.4 µg/mL (≈ 0.477 µM)

Question: What about the MIC (Streptococcus pneumoniae [15]) of the same compound?
Answer: ≤ 0.05 µg/mL

Question: And the MIC (Streptococcus pneumoniae [16])?
Answer: ≤ 0.05 µg/mL

Question: What about the MIC (Streptococcus pneumoniae [17]) of the same compound?
Answer: 1.56 µg/mL (≈ 1.86 µM)

Question: And the MIC (Streptococcus pneumoniae [18])?
Answer: 0.4 µg/mL (≈ 0.477 µM)

Question: What about the MIC (Streptococcus pneumoniae [19]) of the same compound?
Answer: 3.13 µg/mL (≈ 3.73 µM)

Question: And the MIC (Streptococcus pneumoniae [20])?
Answer: 0.025 µg/mL (≈ 0.0298 µM)

Question: What about the MIC (Streptococcus pneumoniae [21]) of the same compound?
Answer: 0.2 µg/mL (≈ 0.239 µM)

Question: And the MIC (Streptococcus pneumoniae [22])?
Answer: 0.1 µg/mL (≈ 0.119 µM)

Question: What about the half-life [23] of the same compound?
Answer: 96 min

Question: And the Activity (Rattus norvegicus [24])?
Answer: Active

Question: What about the MIC (Streptococcus pneumoniae [25]) of the same compound?
Answer: 0.4 µg/mL (≈ 0.477 µM)

Question: What about the MIC (Streptococcus pneumoniae [26]) of the same compound?
Answer: 0.025 µg/mL (≈ 0.0298 µM)

Question: And the MIC (Streptococcus pneumoniae [27])?
Answer: <=0.05 ug ml-1

Question: And the MIC (Streptococcus pneumoniae [28])?
Answer: 0.2 µg/mL (≈ 0.239 µM)

Question: And the MIC (Streptococcus pneumoniae [29])?
Answer: 0.025 µg/mL (≈ 0.0298 µM)

Question: What about the MIC (Streptococcus pneumoniae [30]) of the same compound?
Answer: 0.025 µg/mL (≈ 0.0298 µM)

Question: What about the MIC (Streptococcus pneumoniae [31]) of the same compound?
Answer: 0.025 µg/mL (≈ 0.0298 µM)

Question: What about the MIC (Streptococcus pneumoniae [32]) of the same compound?
Answer: 0.1 µg/mL (≈ 0.119 µM)

Question: What about the MIC (Streptococcus pneumoniae [33]) of the same compound?
Answer: 0.1 µg/mL (≈ 0.119 µM)

Question: What about the MIC (Streptococcus pneumoniae [34]) of the same compound?
Answer: 0.2 µg/mL (≈ 0.239 µM)

Question: And the MIC (Streptococcus pneumoniae [35])?
Answer: 0.025 µg/mL (≈ 0.0298 µM)

Question: And the MIC (Staphylococcus aureus [36])?
Answer: > 50 µg/mL

Question: And the MIC (Streptococcus pneumoniae [37])?
Answer: 0.2 µg/mL (≈ 0.239 µM)

Question: And the MIC (Streptococcus pneumoniae [38])?
Answer: 0.2 µg/mL (≈ 0.239 µM)

Question: What about the Activity (Rattus norvegicus [39]) of the same compound?
Answer: Active

Question: And the MIC [40]?
Answer: 0.2 µg/mL (≈ 0.239 µM)

Question: And the MIC (Streptococcus pneumoniae [41])?
Answer: 0.05 µg/mL (≈ 0.0597 µM)

Question: And the AUC (Rattus norvegicus [42])?
Answer: 2.1 µg·h/mL

Question: What about the MIC (Streptococcus pneumoniae [43]) of the same compound?
Answer: ≤ 0.013 µg/mL

Question: And the MIC (Haemophilus influenzae [44])?
Answer: 1.56 µg/mL (≈ 1.86 µM)

Question: What about the half-life [45] of the same compound?
Answer: 204 min

Question: And the MIC (Streptococcus pneumoniae [46])?
Answer: ≤ 0.013 µg/mL

Question: What about the MIC (Streptococcus pyogenes) of the same compound?
Answer: ≤ 0.05 µg/mL

Question: What about the MIC (Streptococcus pneumoniae [47]) of the same compound?
Answer: 0.025 µg/mL (≈ 0.0298 µM)

Question: And the bioavailability [48]?
Answer: 35%

Question: What about the MIC (Streptococcus pneumoniae [49]) of the same compound?
Answer: 0.78 µg/mL (≈ 0.931 µM)

Question: What about the Kp [50] of the same compound?
Answer: 80

Question: What about the MIC (Streptococcus pneumoniae [51]) of the same compound?
Answer: ≤ 0.05 µg/mL

Question: And the MIC (Streptococcus pneumoniae [52])?
Answer: ≤ 0.05 µg/mL

Question: What about the MIC (Streptococcus pneumoniae [53]) of the same compound?
Answer: ≤ 0.05 µg/mL

Question: And the MIC (Streptococcus pneumoniae [54])?
Answer: 0.4 µg/mL (≈ 0.477 µM)

Question: What about the MIC (Staphylococcus aureus [55]) of the same compound?
Answer: 0.2 µg/mL (≈ 0.239 µM)

Question: And the MIC (Streptococcus pneumoniae [56])?
Answer: 0.1 µg/mL (≈ 0.119 µM)

Question: What about the MIC (Enterococcus faecalis [57]) of the same compound?
Answer: 0.1 µg/mL (≈ 0.119 µM)

Question: And the MIC (Streptococcus pneumoniae [58])?
Answer: 0.025 µg/mL (≈ 0.0298 µM)

Question: What about the MIC (Streptococcus pneumoniae [59]) of the same compound?
Answer: 0.1 µg/mL (≈ 0.119 µM)

Question: What about the MIC (Streptococcus pneumoniae [60]) of the same compound?
Answer: 0.025 µg/mL (≈ 0.0298 µM)

Question: And the MIC (Streptococcus pneumoniae [61])?
Answer: 0.4 µg/mL (≈ 0.477 µM)
